Reference: patent US20020142327A1, “Expression analysis of smarc nucleic acids and polypeptides useful in the diagnosis and treatment of prostate cancer” (priority 2000, published 2002)

Experiments:
Assay type in all cases: cell-based, Human
SMARCD3 expression = experiment: Affymetrix GeneChip expression analysis of LNCaP cells, SMARCD3
Description: (§1) Human prostatic cancer cell lines LNCaP, DU-145, PC-3, and Tsu-prl were obtained from ATCC. LNCaP cancer cells were maintained in humidified atmosphere of 5% CO2 in air in RPMI 1640 medium supplemented with 10% fetal calf serum (Life Technologies, Inc, Rockville, Md.), 3 mM L-glutamine, 100 μg/ml streptomycin and 100 units/ml penicillin. Other lines were maintained in DMEM containing 3 mM L-glutamine, 100 μg/ml streptomycin, 100 units/ml penicillin, and 10% FCS in humidified atmosphere of 5% CO2. To examine the effects of steroids, cells were cultured in RPMI 1640 medium containing 5% FCS treated with dextran coated charcoal (Hyclone, Logan, Utah) for 24 hs before treatment. Cells were grown in the absence or presence of 10 nM DHT for 0, 2, 4, 6, 12, 24, 48, and 72 hs. They were collected and frozen at each time point. Two hundred μl of medium were collected from each flask for PSA assay.
Total RNA was isolated from LNCaP cells using the Qiagen Rneasy Midi Kit following the manufacturer's recommendations. For polyA (+) selection, the Promega PolyATract kit was used according to manufacturer's procedures. Briefly, LNCaP cells were collected by centrifugation and the RNA isolated using the buffers and recommended procedures from the Qiagen kit. Following RNA extraction, all samples were frozen at −80° C. One microgram of poly A(+) RNA was used as template for synthesis of double-stranded cDNA using the GibcoBRL cDNA synthesis kit, with an oligo dT primer incorporating a T7 RNA polymerase promoter (10 minutes at 70° C. for priming, 65 minutes at 37° C. for first strand synthesis with Superscript II RT, followed by 150 min at 15.8° C. for second strand synthesis with E. coli ligase, E. coli polymerase, and RNAse H). […] The cRNA was purified by SPRI using paramagnetic beads (Bangs Laboratories), and total molar concentration was determined from the absorbance at 260. […]

PSA production = experiment: PSA ELISA on medium of LNCaP cells treated with DHT
Description: as §1
Quantification of PSA was performed using an ELISA. Briefly, a 96-well Nunc plate was coated with 100 μl of goat anti-PSA (1 μg/ml, Scripps laboratory, San Diego, Calif.) overnight at 4° C. The plate was washed with water three times and incubated with 100 μl of blocking buffer (PBS, 0.05% Tween 20, 1 μM EDTA, 0.25% BSA, and 0.05% NaN3) for 1 h at room temperature. The plate was washed three times with water and incubated with 1:1 mixture of mouse anti-human PSA and Eu-labeled anti-mouse IgG (10 ng/antibody each/well for 1½ hs at RT). The plate was then washed four times with water. 100 μl of Delfia Enhancement Solution (PerkinElmer Wallac Inc (Norton, Ohio) was added to the plate was read using a Victor reader according to the manufacturer's instruction.

LNCaP cells = experiment: Cell growth assay (MTT) of LNCaP cells treated with DHT
Description: as §1
To verify the effect of DHT on the growth of LNCaP cells, cells at 3,000 cells/well were plated in 96-well plates for 24 hs before treatment with DHT. After 72 hs, MTT was added to each well and incubated at 37° C. for four hs. At the end of incubation, the supernatant was removed and 100 μl DMSO was added to each well to dissolve […]. Plates were subsequently read in a plate reader at […].

[1] = tested on: prostate specific antigen (PSA) expression; experiment: Affymetrix GeneChip expression analysis of LNCaP cells, PSA; details: 10 nM DHT
Description: as §1
Total RNA was isolated from LNCaP cells using the Qiagen Rneasy Midi Kit following the manufacturer's recommendations. For polyA (+) selection, the Promega PolyATract kit was used according to manufacturer's procedures. […] The cRNA was purified by SPRI using paramagnetic beads (Bangs Laboratories), and total molar concentration was determined from the absorbance at 260. […]

With C[C@]12CCC(=O)C[C@@H]1CC[C@@H]1[C@@H]2CC[C@]2(C)[C@@H](O)CC[C@@H]12 [DHT] the “decrease in SMARCD3 expression levels” value (SMARCD3 expression; 24 hours post-androgen treatment) was 2 fold, the “decrease in SMARCD3 expression levels” value (SMARCD3 expression; 48 hours post-treatment) was 4 fold and the “decrease in SMARCD3 expression levels” value (SMARCD3 expression; 72 hours post-treatment) was 6 fold. For the same molecule, the “time at which PSA signal was first detected” value (PSA production; DHT treatment) was 12 h, the “time of maximal PSA level” value (PSA production; DHT treatment) was “about 48 hs” and the PSA production (PSA production; dose response, ELISA) was “increased in a dose-dependent manner”. For the same molecule, the “growth effect at the chosen concentration” value (LNCaP cells; 10 nM DHT) was “robust growth-stimulatory effect”, the “growth of LNCaP cells” value (LNCaP cells; dose response, 72 hs, MTT) was “stimulated” and the “PSA expression increase relative to control” value ([1]; 12 hours) was 3 fold. The “PSA expression induction relative to control” value ([1]; 72 hours) was “approximately 4 fold”.
